# Measurements taken from patent US20080200467A1, “SOLUBLE EPOXIDE HYDROLASE INHIBITORS” (Arete Therapeutics, Inc., priority 2006, published 2008).
# Test system: soluble epoxide hydrolase (sEH)
# Assay: Fluorescent Assay for Mouse and Human Soluble Epoxide Hydrolase (CMNPC substrate)
# Type: biochemical
# Conditions: Concentration 50 nM
# Description: Fluorescent Assay for Mouse and Human Soluble Epoxide Hydrolase Recombinant mouse sEH (MsEH) and human sEH (HsEH) were produced in a baculovirus expression system as previously reported. Grant et al., J. Biol. Chem., 268:17628-17633 (1993); Beetham et al., Arch. Biochem. Biophys., 305:197-201 (1993). The expressed proteins were purified from cell lysate by affinity chromatography. Wixtrom et al., Anal. Biochem., 169:71-80 (1988). Protein concentration was quantified using the Pierce BCA assay using bovine serum albumin as the calibrating standard. The preparations were at least 97% pure as judged by SDS-PAGE and scanning densitometry. They contained no detectable esterase or glutathione transferase activity which can interfere with the assay. The assay was also evaluated with similar results in crude cell lysates or homogenate of tissues. The IC50s for each inhibitor were according to the following procedure: [drawing 218] […] Jones P. D. et. al.; Analytical Biochemistry 2005; 343: pp. 66-75) Bis/Tris HCl 25 mM pH 7.0 containing 0.1 mg/mL of BSA (buffer […] at 0.25 mM in DMSO. Mother solution of enzyme in buffer A (Mouse sEH at 6 μg/mL and Human sEH at 5 μg/mL). Inhibitor dissolved in DMSO at the appropriate concentration. In a black 96 well plate, fill all the wells with 150 μL of buffer A. Add 2 μL of DMSO in well A2 and A3, and then add 2 μL of inhibitor solution in A1 and A4 through A12. Add 150 μL of buffer A in row A, then mix several time and transfer 150 μL to row B. Repeat this operation up to row H. The 150 μL removed from row H is discarded. Add 20 μL of buffer A in column 1 and 2, then add 20 μL of enzyme solution to column 3 to 12. Incubate the plate for 5 minutes in the plate reader at 30° C. During incubation prepare the working solution of substrate by mixing 3.68 mL of buffer A (4×0.920 mL) with 266 μL (2×133 μL) of substrate solution). At t=0, add 30 μL of working substrate solution with multi-channel pipette labeled “Briggs 303” and start the reading ([S]final: 5 μM). Read with ex: 330 nm (20 nm) and em: 465 nm (20 nm) every 30 second for 10 minutes. The velocities are used to analyze and calculate the IC50s. Tables 4-6 show the activity of compounds when tested with the assay at 50, 500, 5000, 50000, and 500000 nM.
row,Compound,% Inhibition
1,"O=C(NC1CCN(S(=O)(=O)c2ccc(Cl)cc2)CC1)C(O)C12CC3CC(CC(C3)C1)C2 (centres unmarked) [Compound 149, N-(1-(4-Chlorophenylsulfonyl)piperidin-4-yl)-2-adamantan-1-yl-2-hydroxyacetamide]",95%

# Same assay, conditions: Concentration 500 nM
row,Compound,% Inhibition
1,"O=C(Nc1cccc(OCc2ccccc2)c1)C(O)CC12CC3CC(CC(C3)C1)C2 (centres unmarked) [Compound 115, 3-Adamantan-1-yl-N-(3-benzyloxy-phenyl)-2-hydroxy-propionamide]",89%
2,"Cc1ccc(S(=O)(=O)N2CCC(CNC(=O)C(O)CC34CC5CC(CC(C5)C3)C4)CC2)cc1 (centres unmarked) [Compound 122, 3-Adamantan-1-yl-2-hydroxy-N-[1-(toluene-4-sulfonyl)-piperidin-4-ylmethyl]-propionamide]",88%

# Same assay, conditions: Concentration 5000 nM
row,Compound,% Inhibition
1,"COc1ccc(C(O)C(=O)NCC23CC4CC(CC(C4)C2)C3)cc1 (centres unmarked) [Compound 120, N-Adamantan-1-ylmethyl-2-hydroxy-2-(4-methoxy-phenyl)-acetamide]",79%
2,"O=C(Nc1ccc(OCc2ccccc2)cc1)C(O)CCC12CC3CC(CC(C3)C1)C2 (centres unmarked) [Compound 143, N-(4-(Benzyloxy)phenyl)-4-adamantan-1-yl-2-hydroxybutanamide]",99%
3,"O=C(Nc1ccc(-n2ccnc2)cc1)C(=O)c1ccc(C(F)(F)F)cc1 [Compound 8, N-(4-Imidazol-1-yl-phenyl)-2-oxo-2-(4-trifluoromethyl-phenyl)-acetamide]",85%
4,"O=C(NC12CC3CC(CC(C3)C1)C2)C(O)Cc1ccc(OCc2ccccc2)cc1 (centres unmarked) [Compound 107, N-Adamantan-1-yl-3-(4-benzyloxy-phenyl)-2-hydroxy-propionamide]",91%
5,"O=C(Nc1cccc(OCc2ccccc2)c1)C(O)C1CCCCC1 (centres unmarked) [Compound 113, N-(3-Benzyloxy-phenyl)-2-cyclohexyl-2-hydroxy-acetamide]",66%
6,"O=C(O)CCCCCCCCCCCNC(=O)C(O)CCc1ccc(C(F)(F)F)cc1 (centres unmarked) [Compound 163, 12-(2-Hydroxy-4-(4-(trifluoromethyl)phenyl)butanamido)dodecanoicacid]",89%
7,"O=C(O)c1ccc(Oc2ccc(CCNC(=O)C(O)CCC34CC5CC(CC(C5)C3)C4)cc2)cc1 (centres unmarked) [Compound 154, 4-(4-(2-(4-Adamantan-1-yl-2-hydroxybutanamido)ethyl)phenoxy)benzoic acid]",81%
8,"O=C(NC12CC3CC(CC(C3)C1)C2)C(O)c1cccc(OCc2ccccc2)c1 (centres unmarked) [Compound 103, N-Adamantan-1-yl-2-(3-benzyloxy-phenyl)-2-hydroxy-acetamide]",87%
9,"Cc1ccc(S(=O)(=O)N2CCC(NC(=O)C(O)CC3CCCCC3)CC2)cc1 (centres unmarked) [Compound 135, 3-Cyclohexyl-2-hydroxy-N-(1-tosylpiperidin-4-yl)propanamide]",89%
10,"Cc1ccc(S(=O)(=O)N2CCC(NC(=O)C(O)C3CCCCC3)CC2)cc1 (centres unmarked) [Compound 137, 2-Cyclohexyl-2-hydroxy-N-(1-tosylpiperidin-4-yl)acetamide]",82%

# Same assay, conditions: Concentration 50000 nM
row,Compound,% Inhibition
1,"O=C(Nc1ccc(OCc2ccccc2)cc1)C(O)CC1CCCCC1 (centres unmarked) [Compound 132, N-(4-(Benzyloxy)phenyl)-3-cyclohexyl-2-hydroxypropanamide]",65%
2,"Cc1ccc(S(=O)(=O)N2CCC(NC(=O)C(O)c3ccc(C(F)(F)F)cc3)CC2)cc1 (centres unmarked) [Compound 108, 2-Hydroxy-N-[1-(toluene-4-sulfonyl)-piperidin-4-yl]-2-(4-trifluoromethyl-phenyl)-acetamide]",80%
3,"Cc1ccc(S(=O)(=O)N2CCC(NC(=O)C(O)Cc3ccc(C(F)(F)F)cc3)CC2)cc1 (centres unmarked) [Compound 142, 2-Hydroxy-N-(1-tosylpiperidin-4-yl)-3-(4-(trifluoromethyl)phenyl)propanamide]",84%
4,"CCCC(=O)N1CCC(NC(=O)C(O)c2ccc(C(F)(F)F)cc2)CC1 (centres unmarked) [Compound 114, N-(1-Butyryl-piperidin-4-yl)-2-hydroxy-2-(4-trifluoromethyl-phenyl)-acetamide]",74%
